Earlier results as cited in patent publication US8703739B2, “Intravascular indwelling catheter lock solution containing weak acid and container containing the same” (priority 2008, dated 2014).
Like-named read-outs stand apart in the source and are kept apart here.

Buffer pKa (second pKa)	Structure (SMILES)	Buffer pKa (first pKa)
–	O=C1O[C@H]([C@@H](O)CO)C(O)=C1O [ascorbic acid]	4.16
4.77	O=C(O)CC(O)C(=O)O (stereo not drawn) [malic acid]	3.23
